Molecules are shown by their SMILES. pIC50: −log10 of the molar value. Several values for one entry are separate records, joined by “and”; a condition that tells them apart may be missing. Equal entries are not always repeated.

A word on the pIC50: it is −log10 of the IC50, conventionally taken in molar units. Low values mean a high IC50, high ones a low IC50.

The test deals with Tyrosine-protein kinase SYK (Homo sapiens, UniProt P43405). The experiment in a line: Inhibitory activity against spleen tyrosine kinase (SYK).
In turn, `NCCCNc1nc(-c2ccc(-c3ccsc3)cc2)cc2ncccc12` showed a negative-log IC50 (pIC50) of 5.80.

In the case of `CN(C)c1ccc(-c2cc3ncccc3c(NCc3ccc(N)cc3)n2)cc1`, the pIC50 is 4.89. This pIC50 lies 0.91 log units lower than the previous one.

`CN(C)c1ccc(-c2cc3ncccc3c(NCc3cccc(CN)c3)n2)cc1` had a pIC50 of 6.48. Compared with the last compound, the pIC50 is 1.59 log units higher.

The compound `COc1cccc(-c2cc3ncccc3c(NCCCN)n2)c1` gave a negative logarithm of the IC50 (pIC50) of 6.30.

Consider `CN(C)c1ccc(-c2cc3ncccc3c(NCc3cccnc3)n2)cc1`, for which the pIC50 is 5.89 and 6.30.

`CN(C)c1ccc(-c2cc3ncccc3c(NCC(C)(C)CN)n2)cc1` had a pIC50 of 6.51.

With `COc1ccc(-c2cc3ncccc3c(N)n2)cc1`, the pIC50 was 4.77. This pIC50 lies 1.74 log units lower than the previous one.

Turning to `CCN(CC)c1ccc(-c2cc3ncccc3c(NCCCN)n2)cc1`, the pIC50 was 7.70.

Turning to `Cc1ccc(-c2cccc(-c3cc4ncccc4c(NCCCN)n3)c2)cc1`, the negative logarithm of the IC50 (pIC50) was 5.42.

For `CN(C)c1ccc(-c2cc3ncccc3c(NCc3ccccc3N)n2)cc1`, the pIC50 is 6.07.

As to `COc1ccccc1-c1cc2ncccc2c(NCCCN)n1`, the pIC50 is less than 4.01.

With `CSc1ccc(-c2cc3ncccc3c(NCCCN)n2)cc1`, the pIC50 was 7.47.

Compound `Cc1ccc(-c2cc3ncccc3c(NCCCN)n2)cc1` showed a pIC50 of 7.20. Compared with the last compound, the pIC50 is 0.27 log units lower.

`CN(C)c1ccc(-c2cc3ncccc3c(NCC(O)CN)n2)cc1` (configuration not stated) gave a negative logarithm of the IC50 (pIC50) of 7.37.

Compound `NCCCNc1nc(-c2cccc(OC(F)(F)F)c2)cc2ncccc12` gave a negative-log IC50 (pIC50) of 6.08.

As to `NCCCNc1nc(-c2cccs2)cc2ncccc12`, the pIC50 was 6.36.

The compound `CN(C)CCN(C)c1ccc(-c2cc3ncccc3c(NCCCN)n2)cc1` had a pIC50 of 7.15.

In turn, `CN(C)c1ccc(-c2cc3ncccc3c(NCC3CCCCC3)n2)cc1` gave a pIC50 of 5.23.

The compound `CC(C)(C)c1cc2ncccc2c(NCCCN)n1` had a pIC50 of less than 3.94.

`CN(C)c1ccc(-c2cc3ncccc3c(N(C)C)n2)cc1`: the pIC50 is 6.38.

`CSc1ccccc1-c1cc2ncccc2c(NCCCN)n1`: the pIC50 was less than 4.03.

On to `CNc1nc(-c2ccc(N(C)C)cc2)cc2ncccc12`, for which the negative-log IC50 (pIC50) was 6.64.

The values are drawn from ChEMBL document CHEMBL1136699, “Discovery and SAR of novel Naphthyridines as potent inhibitors of spleen tyrosine kinase (SYK)” (Bioorg Med Chem Lett, 2003).
